Laboratory results from ChEMBL document CHEMBL2163248, “Classification of inhibitors of hepatic organic anion transporting polypeptides (OATPs): influence of protein expression on drug-drug interactions” (J Med Chem, 2012).
Where a SMILES comes first, the peptide text is derived from it.

Key:
[1] = target: T1, Solute carrier organic anion transporter family member 2B1 (Homo sapiens, UniProt O94956); test: Inhibition of human liver OATP2B1 expressed in HEK293 Flp-In cells assessed as reduction in [3H]E3S uptake at 20 uM incubated for 5 mins by scintillation counting; details: hek293, 5 min
T1 sequence (O94956 whole entry): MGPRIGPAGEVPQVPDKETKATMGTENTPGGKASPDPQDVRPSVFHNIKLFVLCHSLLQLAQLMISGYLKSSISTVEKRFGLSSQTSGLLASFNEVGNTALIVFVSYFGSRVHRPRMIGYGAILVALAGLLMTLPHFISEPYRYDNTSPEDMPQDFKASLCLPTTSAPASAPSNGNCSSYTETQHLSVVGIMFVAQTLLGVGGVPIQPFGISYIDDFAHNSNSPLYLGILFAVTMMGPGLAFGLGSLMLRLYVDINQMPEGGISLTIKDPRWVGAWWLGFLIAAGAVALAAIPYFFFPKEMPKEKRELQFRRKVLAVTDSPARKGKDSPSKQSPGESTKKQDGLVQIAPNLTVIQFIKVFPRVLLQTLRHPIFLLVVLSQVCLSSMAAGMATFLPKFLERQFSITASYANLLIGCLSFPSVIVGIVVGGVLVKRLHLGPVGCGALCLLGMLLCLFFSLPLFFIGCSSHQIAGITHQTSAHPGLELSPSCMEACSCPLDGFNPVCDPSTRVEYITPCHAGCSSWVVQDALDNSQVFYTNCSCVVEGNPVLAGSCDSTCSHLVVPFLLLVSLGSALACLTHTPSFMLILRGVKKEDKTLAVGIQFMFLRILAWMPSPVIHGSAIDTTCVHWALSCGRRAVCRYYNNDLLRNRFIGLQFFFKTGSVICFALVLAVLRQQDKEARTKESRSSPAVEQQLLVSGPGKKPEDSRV

[2] = target: T2, Solute carrier organic anion transporter family member 1B1 (Homo sapiens, UniProt Q9Y6L6); test: Inhibition of human liver OATP1B1 expressed in HEK293 Flp-In cells assessed as reduction in E17-betaG uptake at 20 uM by scintillation counting; details: hek293, 20 µM
T2 sequence (Q9Y6L6 whole entry): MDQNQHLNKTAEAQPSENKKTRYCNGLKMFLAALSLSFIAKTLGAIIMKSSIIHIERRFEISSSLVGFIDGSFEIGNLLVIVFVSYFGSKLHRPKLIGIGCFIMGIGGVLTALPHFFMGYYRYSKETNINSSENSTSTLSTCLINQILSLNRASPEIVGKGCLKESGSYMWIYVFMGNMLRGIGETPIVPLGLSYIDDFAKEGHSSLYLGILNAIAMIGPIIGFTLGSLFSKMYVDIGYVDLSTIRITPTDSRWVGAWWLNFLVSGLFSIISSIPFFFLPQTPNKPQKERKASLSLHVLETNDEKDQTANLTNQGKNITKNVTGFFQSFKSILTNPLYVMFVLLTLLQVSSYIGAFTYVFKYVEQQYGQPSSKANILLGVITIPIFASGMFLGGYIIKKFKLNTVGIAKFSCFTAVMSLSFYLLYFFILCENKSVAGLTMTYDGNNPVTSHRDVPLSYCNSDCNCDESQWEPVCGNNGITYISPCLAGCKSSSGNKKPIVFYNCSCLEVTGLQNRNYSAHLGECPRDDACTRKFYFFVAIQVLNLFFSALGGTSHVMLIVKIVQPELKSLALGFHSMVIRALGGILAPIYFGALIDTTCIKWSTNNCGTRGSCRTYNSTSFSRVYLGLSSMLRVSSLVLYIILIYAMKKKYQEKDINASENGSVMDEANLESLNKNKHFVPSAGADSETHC

[3] = target: T3, Solute carrier organic anion transporter family member 1B3 (Homo sapiens, UniProt Q9NPD5); test: Inhibition of human liver OATP1B3 expressed in HEK293 Flp-In cells assessed as reduction in [3H]E17-betaG uptake at 20 uM incubated for 5 mins by scintillation counting; details: hek293, 5 min
T3 sequence (Q9NPD5 whole entry): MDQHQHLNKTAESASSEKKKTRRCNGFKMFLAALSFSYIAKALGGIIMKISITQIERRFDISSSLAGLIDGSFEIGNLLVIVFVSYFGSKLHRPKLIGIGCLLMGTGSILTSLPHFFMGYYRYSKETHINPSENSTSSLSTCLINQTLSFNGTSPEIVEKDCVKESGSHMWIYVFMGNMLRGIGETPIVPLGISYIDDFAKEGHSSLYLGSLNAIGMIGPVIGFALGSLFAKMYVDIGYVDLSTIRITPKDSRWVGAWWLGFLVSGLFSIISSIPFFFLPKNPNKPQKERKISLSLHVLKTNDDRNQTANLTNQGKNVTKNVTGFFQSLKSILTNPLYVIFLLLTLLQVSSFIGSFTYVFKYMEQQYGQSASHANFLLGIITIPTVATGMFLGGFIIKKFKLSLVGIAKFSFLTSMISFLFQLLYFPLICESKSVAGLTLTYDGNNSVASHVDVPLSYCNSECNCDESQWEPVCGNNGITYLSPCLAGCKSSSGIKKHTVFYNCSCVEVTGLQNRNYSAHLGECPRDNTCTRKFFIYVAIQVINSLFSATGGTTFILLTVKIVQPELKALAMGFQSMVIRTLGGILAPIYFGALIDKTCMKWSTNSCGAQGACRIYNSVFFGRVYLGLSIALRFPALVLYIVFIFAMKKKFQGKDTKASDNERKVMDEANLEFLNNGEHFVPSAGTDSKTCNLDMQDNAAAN

Compound | INH [1] | INH [2] | INH [3]
CCOC(=O)C1=C(C)NC(C)=C(C(=O)OC)C1c1cccc(Cl)c1Cl (configuration not stated) [FELODIPINE] | 21.4% | 36.6% | 18.4%
CC(NCCC(c1ccccc1)c1ccccc1)c1ccccc1 (configuration not stated) [FENDILINE] | -118.7% | 15% | 20.4%
CC(C)OC(=O)C(C)(C)Oc1ccc(C(=O)c2ccc(Cl)cc2)cc1 [FENOFIBRATE] | 34.2% | 5.4% | -10.8%
OC(Cn1cncn1)(Cn1cncn1)c1ccc(F)cc1F [FLUCONAZOLE] | 34.1% | 7.4% | 7.5%
CNCCC(Oc1ccc(C(F)(F)F)cc1)c1ccccc1 (configuration not stated) [FLUOXETINE] | 22.6% | 21.8% | 14.3%
CC(C)C(=O)Nc1ccc([N+](=O)[O-])c(C(F)(F)F)c1 [FLUTAMIDE] | 65.8% | 6.8% | 9%
COCCCC/C(=N\OCCN)c1ccc(C(F)(F)F)cc1 [FLUVOXAMINE] | 39% | 43.8% | 29.2%
Cc1nc2c([nH]1)c(=O)n(C)c(=O)n2Cc1ccco1 [FURAFYLLINE] | 18.1% | -14.7% | 0.7%
Cc1ccc(C)c(OCCCC(C)(C)C(=O)O)c1 [GEMFIBROZIL] | 15.1% | 59.3% | 14.4%
O=c1c(-c2ccc(O)cc2)coc2cc(O)cc(O)c12 [GENISTEIN] | 67.9% | 84.9% | -5%
C[C@H](CCC(=O)NCC(=O)O)[C@H]1CC[C@H]2[C@@H]3[C@H](O)C[C@@H]4C[C@H](O)CC[C@]4(C)[C@H]3CC[C@]12C [GLYCOCHENODEOXYCHOLATE] | 65.3% | 80.2% | 72%
C[C@H](CCC(=O)NCC(=O)O)[C@H]1CC[C@H]2[C@@H]3CC[C@@H]4C[C@H](O)CC[C@]4(C)[C@H]3C[C@H](O)[C@]12C [GLYCODEOXYCHOLATE] | 53.8% | 85% | 79%
NCC(=O)N1CCC[C@H]1C(=O)O [GLYCYL PROLINE] (H-Gly-Pro-OH) | 24.1% | -8.4% | 9.6%
CC1(C)[C@@H](O[C@H]2O[C@H](C(=O)O)[C@@H](O)[C@H](O)[C@H]2O[C@@H]2O[C@H](C(=O)O)[C@@H](O)[C@H](O)[C@H]2O)CC[C@]2(C)[C@H]3C(=O)C=C4[C@@H]5C[C@@](C)(C(=O)O)CC[C@]5(C)CC[C@@]4(C)[C@]3(C)CC[C@@H]12 [GLYCYRRHIZIN] | 28.7% | 65.8% | 90.9%
CN[C@@H]1C[C@H](N)[C@@H](O)[C@H](O[C@H]2O[C@H](CO)[C@H](O)[C@@H]3O[C@@]4(O[C@@H]23)O[C@H]([C@H](N)CO)[C@H](O)[C@H](O)[C@H]4O)[C@H]1O [HYGROMYCIN] | 31.5% | 32.8% | -4.2%
CC(C)Cc1ccc(C(C)C(=O)O)cc1 (configuration not stated) [IBUPROFEN] | 13.5% | 47.3% | -6.6%
CN(C)CCCN1c2ccccc2CCc2ccccc21 [IMIPRAMINE] | 16.9% | 26.9% | -2.4%

Compound | INH [1] | INH [2] | INH [3]
CC1(C)C(/C=C/C=C/C=C/C=C2/N(CCCCS(=O)(=O)[O-])c3ccc4ccccc4c3C2(C)C)=[N+](CCCCS(=O)(=O)[O-])c2ccc3ccccc3c21.[Na+] [INDOCYANINE GREEN] | 79.2% | 86.1% | 100.1%
COc1ccc2c(c1)c(CC(=O)O)c(C)n2C(=O)c1ccc(Cl)cc1 [INDOMETHACIN] | -82.4% | 88.6% | 48.6%
CCc1c2c(nc3ccc(OC(=O)N4CCC(N5CCCCC5)CC4)cc13)-c1cc3c(c(=O)n1C2)COC(=O)[C@]3(O)CC [IRINOTECAN] | 16.3% | 40.5% | 26.9%
NNC(=O)c1ccncc1 [ISONIAZID] | 23.8% | 29.9% | 18.7%
COC(=O)C1=C(C)NC(C)=C(C(=O)OC(C)C)C1c1cccc2nonc12 (configuration not stated) [ISRADIPINE] | 12% | 47.5% | 7.7%
CCC(C)n1ncn(-c2ccc(N3CCN(c4ccc(OCC5COC(Cn6cncn6)(c6ccc(Cl)cc6Cl)O5)cc4)CC3)cc2)c1=O (configuration not stated) [ITRACONAZOLE] | 59.8% | 22.3% | -2.3%
CC(=O)N1CCN(c2ccc(OCC3COC(Cn4ccnc4)(c4ccc(Cl)cc4Cl)O3)cc2)CC1 (configuration not stated) [KETOCONAZOLE] | 44% | 53.6% | 24.7%
Nc1nnc(-c2cccc(Cl)c2Cl)c(N)n1 [LAMOTRIGINE] | 13.6% | 24.9% | 14.5%
Cc1c(OCC(F)(F)F)ccnc1C[S+]([O-])c1nc2ccccc2[nH]1 (configuration not stated) [LANSOPRAZOLE] | -75.7% | 31.4% | 23.3%
NCCCC[C@H](N[C@@H](CCc1ccccc1)C(=O)O)C(=O)N1CCC[C@H]1C(=O)O [LISINOPRIL ANHYDROUS] | 19.2% | 4.6% | 9%
CN(C)C(=O)C(CCN1CCC(O)(c2ccc(Cl)cc2)CC1)(c1ccccc1)c1ccccc1 [LOPERAMIDE] | 19.6% | 32.5% | 32.4%
Cc1cccc(C)c1OCC(=O)N[C@@H](Cc1ccccc1)[C@@H](O)C[C@H](Cc1ccccc1)NC(=O)[C@H](C(C)C)N1CCCNC1=O [LOPINAVIR] | 86.4% | 85.8% | 84.6%
CC[C@H](C)C(=O)O[C@H]1C[C@@H](C)C=C2C=C[C@H](C)[C@H](CC[C@@H]3C[C@@H](O)CC(=O)O3)[C@H]21 [LOVASTATIN] | -17.9% | 66.5% | 21.3%
CCC1(c2ccccc2)NC(=O)N(C)C1=O (configuration not stated) [MEPHENYTOIN] | 32.9% | -5.7% | -0.6%
CN(Cc1cnc2nc(N)nc(N)c2n1)c1ccc(C(=O)N[C@@H](CCC(=O)O)C(=O)O)cc1 [METHOTREXATE] | -13.4% | 27.4% | 17.2%
COc1c2occc2cc2ccc(=O)oc12 [METHOXSALEN] | -1.6% | 38.1% | 8.9%
COCCc1ccc(OCC(O)CNC(C)C)cc1 (configuration not stated) [METOPROLOL] | 30.5% | 28.1% | 19.8%
